According to patent publication US7692011B2, “8-hydroxy and 8-mercapto quinazolinones” (Prana Biotechnology Limited, priority 2002, dated 2010):
≈ marks a conversion by molar mass, not a printed value. Structures can show the parent of a compound that is named as a salt. Where two headings read alike, the source gives them in different places.

Columns and labels:
[1] = tested on: Neuronal cortical cells treated with Aβ1-42; test: Assay 3(c) Aβ neurotoxicity and Aβ neuroprotection (MTS); type: cell-based, mouse; conditions: 20 uM Aβ1-42, 4 days
Experimental: Primary Cortical Neuronal Cultures
Cortical cultures were prepared as previously described (White et al., 1998). Embryonic day 14 BL6Jx129sv mouse cortices were removed, dissected free of meninges and dissociated in 0.025% (wt/vol) trypsin. Dissociated cells were plated in 48 well culture plates at a density of 2×10^6 cells/mL in MEM with 25% (vol/vol) FCS and 5% (vol/vol) HS and incubated at 37° C., 2 hrs. Media was then replaced with Neurobasal media (Invitrogen Life Technologies) and B27 supplements (Invitrogen Life Technologies). Cultures were maintained at 37° C. in 5% CO2. Prior to experimentation, the culture medium was replaced with Neurobasal media and B27 minus antioxidants (Invitrogen Life Technologies).
(c) Assay for Aβ Neurotoxicity and Aβ Neuroprotection
Neuronal cortical cells were cultured for five days as per Assay 2. On day six the neurobasal (NB) media (Invitrogen Life Technologies) and B27 supplement (Invitrogen Life Technologies) were replaced with NB media and B27 supplement (no antioxidants). On day six, test compounds were individually added to the neuronal cell cultures:
(§1) The test compounds were dissolved in 100% DMSO to a concentration of 2.5 mM (10 mM if excess compound was weighed out per vial—then diluted to 2.5 mM). 2.5 mM stock solution was serially diluted 1 in 10 to give working solutions of 250 uM, 25 uM, 2.5 uM.
Aβ was initially dissolved in 20 mM NaOH to a concentration of 1 mM and sonicated for 5 minutes. The peptide was then diluted in H2O and 10×PBS to a final concentration of 200 uM Aβ in 1×PBS. The peptide was again sonicated for 5 minutes and then spun at 14000 rpm for 5 min and transferred to a fresh tube.
as §1, with “in 10 [in NB media and B27 (no antioxidants)] to give” for “in 10 to give”, “2.5 uM. Test compounds were not added directly to cells, instead they were added to a 48 well ‘Drug Plate’ as comprised below:” for “2.5 uM.”
Preparation of “Drug Plate”:
• Well 1: 515 ul NB+B27(no antioxidant)*+24 ul 25 uM test compound+60 ul Aβ diluent** • Well 2: 515 ul NB+B27(no antioxidant)+24 ul 250 uM test compound+60 ul Aβ diluent • Well 3: 515 ul NB+B27(no antioxidant)+24 ul test compound diluent***+60 ul Aβ1-42 • Well 4: 515 ul NB+B27(no antioxidant)+24 ul 2.5 uM test compound+60 ul Aβ1-42 • Well 5: 515 ul NB+B27(no antioxidant)+24 ul 25 uM test compound+60 ul Aβ1-42 • Well 6: 515 ul NB+B27(no antioxidant)+24 ul 250 uM test compound+60 ul […] • Well 7: 515 ul NB+B27(no antioxidant)+24 ul test compound diluent+60 ul Aβ1-42 diluent • Well 8: 600 ul NB+B27(no antioxidant) • N.B. 60 ul Aβ1-42 equals 20 ul Aβ1-42 per well equals 20 uM Aβ1-42
The Drug Plate was incubated at 37° C. for 15 mins. 200 ul of each well was added in triplicate to the corresponding cell plate. The cell plate was incubated at 37 C, for 4 days. • * NB media+B27 (no antioxidants), • ** Aβ diluent 2 mM NaOH, 1×PBS • *** PBT diluent 10% DMSO in NB+B27(no antioxidant) Completion of the Assay:
On the 4th day after treating the cells the assay is completed by adding MTS to the cells.

Aβ 1-42 = molecular target: T1, Aβ 1-42 (Homo sapiens, UniProt P05067); test: Assay 1 Fluorometric H2O2 assay: inhibition of hydrogen peroxide generation by Aβ in the presence of copper; type: biochemical; conditions: Aβ 1-42 with Cu-Gly, DCF fluorescence
T1 construct: The reaction solutions contained Aβ 1-42
T1 sequence (P05067 672-713 limits assumed): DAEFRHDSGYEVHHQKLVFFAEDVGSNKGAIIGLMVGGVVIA
Experimental: Assay 1. Fluorometric H2O2 Assay
A fluorometric assay was used to test the ability of a test compound to inhibit hydrogen peroxide generation by Aβ in the presence of copper based on dichlorofluoroscein diacetate (DCF; Molecular Probes, Eugene Oreg.). The DCF solution (5 mM) in 100% dimethyl sulphoxide (previously purged with argon for 1 hr at 20° C.) was deacetylated in the presence of 0.025M NaOH for 30 min and neutralised at pH 7.4 to a final concentration of 1 mM. Horseradish peroxidase ([…]) stock solution was prepared to 1 μM at pH 7.4. The reactions were carried out in PBS, pH 7.4 in a 96 well plate (total volume=250 μl/well). The reaction solutions contained Aβ 1-42 at concentrations in the range of 50 nM to 1 μM, copper-glycine chelate (Cu-Gly), was prepared by adding CuCl2 to glycine in the ratio of 1:6 and added to the Aβ in the proportion 2Cu-Gly: 1Aβ), reducing agents including dopamine (5 μM) or ascorbic acid, deacetylated DCF 100 μM, and HRP, 0.1 μM. 1-10 μM EDTA or another chelator may also be present as a control for free copper, but was not required for the assay to function. The reaction mixture was incubated at 37 C for 60 min. Catalase (4000 units/ml) and H2O2 (1-2.5 μM) standards in PBS pH 7.4 may be included as positive controls. Fluorescence was recorded using a plate reader with excitation and emission filters at […] respectively. H2O2 concentration may be established by comparing fluorescence with the H2O2 standards. Inhibition of Aβ H2O2 production was assayed by including a given concentration of test compound(s) in the test wells.

[2] = Assay 12 Turbidimetric solubility measurements; type: physicochemical; conditions: kinetic from dmso stock, nephelometry
Experimental: Turbidimetric Solubility Measurements
The solubility estimate was measured at both pH 2.0 and pH 6.5. This is within the pH range that can be anticipated along the proximal gastrointestinal tract in humans.
The compounds were dissolved in DMSO to appropriate concentrations and then spiked into either 0.01M HCl (approx. pH=2.0) or pH 6.5 isotonic phosphate buffer, the final DMSO concentration being 1%. Samples were then analysed via Nephelometry to determine a solubility range. [as per D. Bevan and R. S. Lloyd, Anal. Chem. 2000, 72, 1781-1787].

[3] = tested on: moderately severe AD patients; test: Phase II clinical trial in Alzheimer's disease: cognition (ADAS-cog); type: in vivo, human; conditions: more-severely affected groups
Description: The performance of the less-severely affected group (ADAS-cog<25) deteriorated negligibly over this interval, so cognitive changes could not be discriminated in this stratum.
Study population: The study took place at the AD clinical trials unit, Mental Health Research Institute of Victoria and at the Royal Melbourne Hospital. Criteria for inclusion in the study were: informed consent; a diagnosis of probable AD by NINCDS-ADRDA criteria (McKhann et al., 1984); AD Assessment Scale-cognitive (ADAS-cog) (Rosen et al., 1984) score of 18-45; Mini Mental State Examination (MMSE) (Folstein et al., 1975) score of 10-24; on donepezil 5 mg or 10 mg for at least 6 months; relative or carer willing and able to support the trial; able to complete trial examinations; primary sensorial functions intact.
(§2) Study design: The study was a double blind, placebo-controlled, parallel group randomized design. […] The duration of the study was 36 weeks.
Outcome measures: The primary clinical efficacy variable was a change from baseline score on the ADAS-cog conducted at baseline and at weeks 4, 12, 24 and 36. […]
Data preparation and statistical analysis: Data monitoring and management were undertaken by independent contractors (Kendle International and Health Research Solutions, Melbourne). […] Differences between groups on categorical measures were analysed using exact statistical methods in order to maximise power. […]

[4] = Phase II clinical trial: plasma metal levels (ICP-MS); type: in vivo, human; conditions: AD patients, oral
Description: as §2
Blood samples were collected by antecubital venepuncture except on weeks 12, 24 and 36 when they were collected by an indwelling catheter. […] Zn data from these intervals were therefore omitted from analysis.
Outcome measures: The primary clinical efficacy variable was a change from baseline score on the ADAS-cog conducted at baseline and at weeks 4, 12, 24 and 36. This measure was chosen to allow comparability of treatment effects with current therapeutics such as donepezil, where efficacy trials also used ADAS-cog as their primary outcome measure (Rogers et al., 1998). Although numerous neuropsychological tests could be considered as secondary measures, it was necessary to avoid fatiguing the subjects at review. Therefore the only other cognitive test was the Mini-Mental State Exam (MMSE). The CIBIC+ (clinician interview based impression of change incorporating caregiver information), a subjective observational index was also conducted. Plasma Aβ, and plasma zinc and copper were all taken every four weeks.
Metal levels: Metals were measured by inductively coupled plasma mass spectrometry as previously described (Cherny et al., 2001).

[5] = Phase II clinical trial: therapeutic drug monitoring, blood levels by HPLC; type: in vivo; conditions: human, oral, read-out: Steady state pre-dose blood level
Description: as §2

[6] = aqueous buffer, pH 6.5 isotonic phosphate buffer, 1% DMSO, read-out: Assay 12 Solubility at pH 6.5
[7] = simulated gastric fluid, 0.01 M HCl, pH 2.0, 1% DMSO, read-out: Assay 12 Solubility in 0.01 M HCl, pH 2.0

Structure (SMILES) | Assay 3(c) Neuroprotection (% inhibition of Abeta toxicity) [1] | IC50 (Aβ 1-42) | other results
COC(=O)c1nc(Cl)c2cccnc2c1O [PBT-1045, 5-chloro-8-hydroxy-[1,6]naphthyridine-7-carboxylic acid methyl ester] | 12% | 900 nM | 
O=c1ccnc2c(O)cccn12 [PBT-1048, 9-hydroxypyrido[1,2-a]pyrimidin-4-one] | 22% | 350 nM | 
O=c1[nH]cnc2c(O)c(Cl)cc(Cl)c12 [PBT-1067, 5,7-Dichloro-8-hydroxy-3H-quinazolin-4-one] |  | 950 nM | solubility [2, 6]: 25 to 50 µg/mL (≈ 108 to 216 µM); solubility [2, 7]: 12.5 to 25 µg/mL (≈ 54.1 to 108 µM)
Oc1c(I)cc(Cl)c2cccnc12 [PBT-1, iodochlorohydroxyquinoline] |  |  | Difference in mean change from baseline ADAS-cog score over placebo ([3]; week 24): 7.37 (95% CI: 1.51-13.24); Difference in mean change from baseline ADAS-cog score over placebo ([3]; week 36): 6.36 (95% CI: −0.50-13.23); Effect on plasma Cu [4]: no effect; Elevation of total plasma Zn [4]: ≈ 30%; concentration at 12 weeks ([5]; 250 mg/day, total daily dosage 250 mg): 4030 ± 2100 ng/mL; concentration at 24 weeks ([5]; 500 mg/day, total daily dosage 500 mg): 6740 ± 3700 ng/mL; concentration at 36 weeks ([5]; 750 mg/day, total daily dosage 750 mg): 7600 ± 2150 ng/mL
O=c1c(-c2ccc(Cl)cc2)cnc2c(O)cccn12 [PBT-1069, 3-(4-chlorophenyl)-9-hydroxypyrido[1,2-a]pyrimidin-4-one] |  | 600 nM | 
CN(C)Cc1cnc2c(Cl)cc(Cl)c(O)c2n1 [PBT-1066, 6,8-Dichloro-3-(dimethylaminomethyl)quinoxalin-5-ol hydrochloride] |  |  | solubility [2, 6]: > 100 µg/mL; solubility [2, 7]: > 100 µg/mL
Cc1cnc2c(O)c(Cl)cc(Cl)c2n1 [PBT-1065, 6,8-Dichloro-2-methylquinoxalin-5-ol] | 7% |  | 
O=c1[nH]cnc2c(O)cccc12 [PBT-1049, 8-hydroxy-3H-quinazolin-4-one] | 11% | 1600 nM | 
O=c1c2c(Cl)cc(Cl)c(O)c2ncn1-c1ccc(F)cc1 [PBT-1055, 5,7-Dichloro-3-(4-fluorophenyl)-8-hydroxy-3H-quinazolin-4-one] | 29% | 750 nM | solubility [2, 6]: 3 to 6.3 µg/mL (≈ 9.23 to 19.4 µM); solubility [2, 7]: 3 to 6.3 µg/mL (≈ 9.23 to 19.4 µM)
CNCc1ccc2cnc(C(=O)NCc3ccc(F)cc3)c(O)c2n1 [PBT-1070] |  | 1140 nM | 
Cc1cnc2c(Cl)cc(Cl)c(O)c2n1 [PBT 1064, 6,8-Dichloro-3-methylquinoxalin-5-ol] | 29% |  | 
